Patent US8785460B2, “Tricyclic compounds and use thereof” (Takeda Pharmaceutical Company Limited, priority 2008, dated 2014)
pIC50: −log10 of the molar value.

Target: T1, human CRF1 receptor (Homo sapiens, UniProt P34998)
T1 construct: expressed in transfected cells; host or cells: CHO cells (membrane fraction)
T1 sequence (P34998 24-415): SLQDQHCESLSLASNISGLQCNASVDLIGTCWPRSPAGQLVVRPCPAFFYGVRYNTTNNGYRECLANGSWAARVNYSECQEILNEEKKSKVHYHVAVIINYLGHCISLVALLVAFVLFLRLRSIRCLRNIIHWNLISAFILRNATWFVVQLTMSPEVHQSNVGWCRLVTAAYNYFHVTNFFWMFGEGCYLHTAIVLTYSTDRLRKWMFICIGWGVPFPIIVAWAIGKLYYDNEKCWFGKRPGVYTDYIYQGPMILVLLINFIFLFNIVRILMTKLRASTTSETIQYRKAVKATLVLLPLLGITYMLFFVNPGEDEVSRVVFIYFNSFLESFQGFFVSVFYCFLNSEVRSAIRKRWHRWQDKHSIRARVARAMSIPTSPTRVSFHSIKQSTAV
Test: Measurement of CRF Binding Inhibitory Rate (receptor binding experiment with 125I-CRF)
Conditions: human CRF1 receptor expressing CHO cellular membrane fraction, 50 pM 125I-CRF, room temperature 1.5 hr, 0.05 nM to 10 μM of compound; read-out: IC50 values (CRF binding inhibition)

SMILES | pIC50
CCN(CC)c1cc(F)cc2nc3n(c12)CCCOC3c1ccc(Cl)cc1Cl (stereo not drawn) [Example 494, 1-(2,4-Dichlorophenyl)-N,N-diethyl-9-fluoro-4,5-dihydro-1H,3H-[1,4]oxazepino[4,3-a]benzimidazol-7-amine] | > 6.00
Cc1cc(Cl)cc(Cl)c1N1CCCn2c1nc1c(Cl)ccc(C(O)CC3CC3)c12 (stereo not drawn) [Example 386, 1-[9-Chloro-1-(2,4-dichloro-6-methylphenyl)-1,2,3,4-tetrahydropyrimido[1,2-a]benzimidazol-6-yl]-2-cyclopropylethanol] | > 6.00
CCC(c1ccc(Cl)c2nc3n(c12)CCCN3c1ccc(Cl)cc1Cl)N(C)S(C)(=O)=O (stereo not drawn) [Example 385, N-{1-[9-Chloro-1-(2,4-dichlorophenyl)-1,2,3,4-tetrahydropyrimido[1,2-a]benzimidazol-6-yl]propyl}-N-methylmethanesulfonamide] | > 6.00
CCO/N=C(\CC)c1ccc(Cl)c2nc3n(c12)CCCN3c1ccc(Cl)cc1Cl [Example 123, (1E)-1-[9-Chloro-1-(2,4-dichlorophenyl)-1,2,3,4-tetrahydropyrimido[1,2-a]benzimidazol-6-yl]propan-1-one O-ethyloxime] | > 6.00
CCN(CC)c1cccc2nc3n(c12)CCC(=O)NC3c1ccc(Cl)cc1Cl (stereo not drawn) [Example 487, 1-(2,4-Dichlorophenyl)-7-(diethylamino)-1,2,4,5-tetrahydro-3H-[1,4]diazepino[1,2-a]benzimidazol-3-one] | > 6.00
CCC(OC(C)=O)c1ccc(Cl)c2nc3n(c12)CCCN3c1ccc(Cl)cc1Cl (single isomer, unassigned; (-)) [Example 239, (−)-1-[9-Chloro-1-(2,4-dichlorophenyl)-1,2,3,4-tetrahydropyrimido[1,2-a]benzimidazol-6-yl]propyl acetate] | > 6.00
CCC(c1ccc(Cl)c2nc3n(c12)CCCN3c1ccc(Cl)cc1Cl)C(C)O (stereo not drawn) [Example 404, 3-[9-Chloro-1-(2,4-dichlorophenyl)-1,2,3,4-tetrahydropyrimido[1,2-a]benzimidazol-6-yl]pentan-2-ol] | > 6.00
CCC(c1ccc(Cl)c2nc3n(c12)CCCN3c1ccc(Cl)cc1Cl)C(O)C(F)(F)F (stereo not drawn) [Example 317, 3-[9-chloro-1-(2,4-dichlorophenyl)-1,2,3,4-tetrahydropyrimido[1,2-a]benzimidazol-6-yl]-1,1,1-trifluoropentan-2-ol] | > 6.00
CCC(OCC(F)(F)F)c1ccc(Cl)c2nc3n(c12)CCCN3c1ccc(OC)cc1Cl (stereo not drawn) [Example 466, 9-Chloro-1-(2-chloro-4-methoxyphenyl)-6-[1-(2,2,2-trifluoroethoxy)propyl]-1,2,3,4-tetrahydropyrimido[1,2-a]benzimidazole] | > 6.00
CCN(CC)c1cccc2nc3n(c12)CC(F)(F)CCN3c1ccc(Cl)cc1Cl [Example 359, 1-(2,4-Dichlorophenyl)-N,N-diethyl-4,4-difluoro-2,3,4,5-tetrahydro-1H-[1,3]diazepino[1,2-a]benzimidazol-7-amine] | > 6.00
OC(c1ccc(Br)c2nc3n(c12)CCCN3c1ccc(Cl)cc1Cl)(C1CC1)C1CC1 [Example 368, [9-Bromo-1-(2,4-dichlorophenyl)-1,2,3,4-tetrahydropyrimido[1,2-a]benzimidazol-6-yl](dicyclopropyl)methanol] | > 6.00
CCC(C(=O)C(F)(F)F)c1ccc(Cl)c2nc3n(c12)CCCN3c1ccc(Cl)cc1Cl (stereo not drawn) [Example 318] | > 6.00
CCN(CC)c1cccc2nc3n(c12)CCCOC3c1ccc(Cl)cc1Cl (single isomer, unassigned) [Example 485, 1-(2,4-Dichlorophenyl)-N,N-diethyl-4,5-dihydro-1H,3H-[1,4]oxazepino[4,3-a]benzimidazol-7-amine] | > 6.00
CCC(OC(C)=O)c1ccc(Cl)c2nc3n(c12)CCCN3c1ccccc1Cl (stereo not drawn) [Example 253, 1-[9-Chloro-1-(2-chlorophenyl)-1,2,3,4-tetrahydropyrimido[1,2-a]benzimidazol-6-yl]propyl acetate] | > 6.00
CCC(CC)c1ccc(Cl)c2nc3n(c12)CC(=O)N3c1cnc(N(C)C)cc1C [Example 9, 8-Chloro-1-[6-(dimethylamino)-4-methylpyridin-3-yl]-5-(1-ethylpropyl)-1H-imidazo[1,2-a]benzimidazol-2(3H)-one] | > 6.00
CCC(CC)c1ccc(Cl)c2nc3n(c12)CCCCN3c1ccc(C)cc1CO [Example 33, {2-[10-Chloro-7-(1-ethylpropyl)-2,3,4,5-tetrahydro-1H-[1,3]diazepino[1,2-a]benzimidazol-1-yl]-5-methylphenyl}methanol] | > 6.00
CCN(CC)c1cccc2nc3n(c12)CCC=C3c1ccc(Cl)cc1Cl [Example 492, 4-(2,4-Dichlorophenyl)-N,N-diethyl-1,2-dihydropyrido[1,2-a]benzimidazol-9-amine] | > 6.00
COC(=O)c1ccc(Cl)c2nc3n(c12)CCCN3c1ncc(C)nc1C [Example 175, Methyl 9-chloro-1-(3,5-dimethylpyrazin-2-yl)-1,2,3,4-tetrahydropyrimido[1,2-a]benzimidazole-6-carboxylate] | > 6.00

Test system: not given
Test: not given
Conditions: not given

SMILES | melting point [°C]
CN(C)Cc1cccc2nc3n(c12)CCCN3c1ccc(Cl)cc1Cl [Example 87, 1-[1-(2,4-Dichlorophenyl)-1,2,3,4-tetrahydropyrimido[1,2-a]benzimidazol-6-yl]-N,N-dimethylmethanamine] | 158 to 159
CCC(O)c1ccc(Cl)c2nc3n(c12)CCCN3c1ccc(Cl)cc1Cl (stereo not drawn) [Example 112, 1-[9-Chloro-1-(2,4-dichlorophenyl)-1,2,3,4-tetrahydropyrimido[1,2-a]benzimidazol-6-yl]propan-1-ol] | 244 to 245
CCC(CC)c1ccc(Cl)c2nc3n(c12)CCN3C(=O)c1c(C)cc(C)cc1C [Example 229, 8-Chloro-5-(1-ethylpropyl)-1-[(2,4,6-trimethylphenyl)carbonyl]-2,3-dihydro-1H-imidazo[1,2-a]benzimidazole] | 234 to 236
CCC(O)c1ccc(Cl)c2nc3n(c12)CCCN3c1ccc(Cl)cc1Cl (single isomer, unassigned; (+)) [Example 439, (+)-1-[9-Chloro-1-(2,4-dichlorophenyl)-1,2,3,4-tetrahydropyrimido[1,2-a]benzimidazol-6-yl]propan-1-ol] | 233 to 235
Cc1nc(N2CCCC2)ccc1N1CCCn2c1nc1c(Cl)ccc(C(OC(F)F)C(F)(F)F)c12 (stereo not drawn) [Example 294, 9-Chloro-6-[1-(difluoromethoxy)-2,2,2-trifluoroethyl]-1(2-methyl-6-pyrrolidin-1-ylpyridin-3-yl)-1,2,3,4-tetrahydropyrimido[1,2-a]benzimidazole] | 233 to 236
CCN(CC)c1cccc2nc3n(c12)CCOC3c1ccc(Cl)cc1Cl (stereo not drawn) [Example 501, 1-(2,4-Dichlorophenyl)-N,N-diethyl-3,4-dihydro-1H-[1,4]oxazino[4,3-a]benzimidazol-6-amine] | 130 to 131
Cc1nc(O)nc(C)c1N1CCCn2c1nc1c(Cl)ccc(C(OC(F)F)C(F)(F)F)c12 (stereo not drawn) [Example 215, 5-{9-Chloro-6-[1-(difluoromethoxy)-2,2,2-trifluoroethyl]-3,4-dihydropyrimido[1,2-a]benzimidazol-1(2H)-yl}-4,6-dimethylpyrimidin-2-ol] | 208 to 210
OC(c1cccc2nc3n(c12)CCCN3c1ccc(Cl)cc1Cl)C1CC1 (stereo not drawn) [Example 95, Cyclopropyl[1-(2,4-dichlorophenyl)-1,2,3,4-tetrahydropyrimido[1,2-a]benzimidazol-6-yl]methanol] | 208 to 209
N#Cc1cccc2nc3n(c12)CCCN3c1ccc(Cl)cc1Cl [Example 84, 1-(2,4-Dichlorophenyl)-1,2,3,4-tetrahydropyrimido[1,2-a]benzimidazole-6-carbonitrile] | 170 to 171
CCN(CC)c1cccc2nc3n(c12)CCCN(C)C3c1ccc(Cl)cc1Cl (stereo not drawn) [Example 510, 1-(2,4-Dichlorophenyl)-N,N-diethyl-2-methyl-2,3,4,5-tetrahydro-1H-[1,4]diazepino[1,2-a]benzimidazol-7-amine] | 132 to 133
OC(c1ccc(Cl)c2nc3n(c12)CCN3c1ccc(Cl)cc1Cl)(C1CC1)C1CC1 [Example 430, [8-Chloro-1-(2,4-dichlorophenyl)-2,3-dihydro-1H-imidazo[1,2-a]benzimidazol-5-yl](dicyclopropyl)methanol] | 238 to 239
CCC(C)Nc1cccc2nc3n(c12)CCCN3c1ccc(Cl)cc1Cl (stereo not drawn) [Example 207, 1-(2,4-Dichlorophenyl)-N-(1-methylpropyl)-1,2,3,4-tetrahydropyrimido[1,2-a]benzimidazol-6-amine] | 180 to 181
CCN(CC)c1cccc2nc3n(c12)CC(CC(=O)OC)N3c1ccc(Cl)cc1Cl (stereo not drawn) [Example 72, Methyl [1-(2,4-dichlorophenyl)-5-(diethylamino)-2,3-dihydro-1H-imidazo[1,2-a]benzimidazol-2-yl]acetate] | 137 to 138
CN(C)C(=O)c1cccc2nc3n(c12)CCCN3c1ccc(Cl)cc1Cl [Example 86, 1-(2,4-Dichlorophenyl)-N,N-dimethyl-1,2,3,4-tetrahydropyrimido[1,2-a]benzimidazole-6-carboxamide] | 212 to 213
COc1nc(C)c(N2CCCn3c2nc2c(Br)ccc(C(OC(F)F)C(F)(F)F)c23)c(C)n1 (stereo not drawn) [Example 519, 9-Bromo-6-[1-(difluoromethoxy)-2,2,2-trifluoroethyl]-1-(2-methoxy-4,6-dimethylpyrimidin-5-yl)-1,2,3,4-tetrahydropyrimido[1,2-a]benzimidazole] | 211 to 213
